Reference: article PMC12299813, “Combined Metabolomics and Network Pharmacology to Reveal Anti-Diabetic Mechanisms and Potential Pharmacological Components of Synsepalum dulcificum” (Plants, 2025)

Target: α-glucosidase
Test: α-glucosidase inhibition assay (PNPG method)
Format: biochemical, yeast
Settings: acarbose positive control, three repetitions, read-out: IC50 ± SD of α-glucosidase inhibition, S. dulcificum components
Description: Ultrapure water was obtained using the UP series ultrapure water system (Chengdu, China). […] HPLC-grade formic acid was purchased from Shanghai Aladdin Biochemical Technology Co., Ltd. (Shanghai, China). HPLC-grade methanol and acetonitrile were purchased from Merck (Darmstadt, Germany). Di-methyl sulfoxide (DMSO) was purchased from Tianjin Dama Chemical Reagent Factory (Tianjin, China). Disodium hydrogen phosphate was purchased from Guangdong Guanghua Technology Co., Ltd. (Shantou, China). Other analytical-grade chemicals and reagents, such as sodium chloride and anhydrous ethanol, were obtained from Sichuan Xilong Scientific Co., Ltd. (Chengdu, China).
Soak the crushed stems, leaves, and fruits of S. dulcificum in methanol for 24 h, then extract the chemical components using ethyl acetate. After that, concentrate the extract using a rotary vacuum evaporator, repeating the extraction three times to obtain the crude extracts, which are then prepared at concentrations of 0.5, 1, 8, and 16 mg/mL, respectively, for subsequent inhibition experiments.
The assay was conducted following a previously described method, and made some minor adjustments. Briefly, 0.1 M phosphate-buffered saline (PBS, pH 6.9) was used to prepare standard sample solutions of different concentrations, α-glucosidase (1 U/mL), and p-nitrophenyl-α-D-glucopyranoside (α-PNPG, 5 mM). A mixture of the sample (50 μL) and α-glucosidase (50 μL) was incubated at 37 °C for 10 min, followed by the addition of 50 μL of PNPG and further incubation at 37 °C for 20 min. Finally, 100 μL of Na2CO3 (0.1 M) was added to terminate the reaction after incubating at 37 °C for 10 min. […] The experiment was set up with three repetitions, and the IC50 values were determined.
C=C(C)[C@@H]1CC[C@]2(C(=O)O)CC[C@]3(C)[C@H](CC[C@@H]4[C@@]5(C)CC[C@H](O)C(C)(C)[C@@H]5CC[C@]43C)[C@@H]12 [Betulinic acid] showed an IC50 of 0.07 ± 0.02 mM. For C[C@H]1[C@H](C)CC[C@]2(C(=O)O)CC[C@]3(C)C(=CC[C@@H]4[C@@]5(C)C[C@@H](O)[C@H](O)C(C)(C)[C@@H]5CC[C@]43C)[C@H]12 [Corosolic acid], the IC50 was 2.12 ± 0.44 mM. Compound COC(=O)c1cc(O)c(O)c(O)c1 [Methyl gallate] has an IC50 of 4.18 ± 1.09 mM. In the case of CC(C)=CCC/C(C)=C/CC/C(C)=C/CC/C=C(\C)CC/C=C(\C)CCC=C(C)C [Squalene], the IC50 is reported as 55.1 ± 1.8 mM. In the case of CC[C@H](/C=C/[C@@H](C)[C@H]1CC[C@H]2[C@@H]3CC=C4C[C@@H](O)CC[C@]4(C)[C@H]3CC[C@]12C)C(C)C [Stigmasterol], the IC50 is reported as 2.11 ± 0.24 mM. Work on COc1cc(/C=C/CO)cc(OC)c1O[C@@H]1O[C@H](CO)[C@@H](O)[C@H](O)[C@H]1O [Syringin] yielded an IC50 of 5.4 ± 1.2 mM.

Tested on: not given
Test: not given
Parameters: method as in doi:10.1016/j.jtice.2010.05.008
Settings: isolated from the stem of SD; cited from earlier work
In the case of COc1cc([C@H]2OC[C@H]3[C@@H]2CO[C@H]3c2cc(OC)c(O)c(OC)c2)cc(OC)c1O [(+)-epi-syringaresinol], the “DPPH radical scavenging activity compared to positive control vitamin C” value is listed as “superior”. In the case of COc1cc([C@H]2OC[C@H]3[C@@H]2CO[C@@H]3c2cc(OC)c(O)c(OC)c2)cc(OC)c1O [(+)-syringaresinol], the “DPPH radical scavenging activity compared to positive control vitamin C” value is listed as “superior”.

Tested on: type 2 diabetic albino rats
Test: not given
Parameters: method as in PMID 28917550
Settings: cited from earlier work
In the case of COc1ccc(Cl)cc1C(=O)NCCc1ccc(S(=O)(=O)NC(=O)NC2CCCCC2)cc1 [glibenclamide], the blood glucose levels is given as “significantly lowered”.
